Laboratory results taken from US7498292B2, “Combinatorial libraries of autoinducer analogs, autoinducer agonists and antagonists, and methods of use thereof” (The Research Foundation of State University of New York, priority 2002, dated 2009).
“Also recorded” adds a separate entry of the source. Where two headings read alike, the source gives them in different places.

Legend:
LasR [1] = biological target: T1, LasR (Pseudomonas aeruginosa, UniProt P25084); experiment: lasI-gfp reporter agonist assay, PAO-JP2 (plasI-LVAgfp); type: cell-based, P. aeruginosa; details: for agonist activity (induction of lasI-gfp reporter): PAO-JP2 (plasI-LVAgfp), compounds made in solution phase, increasing concentrations (1, 100, 400 μM)
T1 construct: endogenous in cells; host or cells: P. aeruginosa PAO-JP2 (lasI, rhlI) harboring plasI-LVAgfp
Text: Since this strain lacks the ability to produce natural AIs due to disruption of both AI synthase genes, activation of LasR relies on the addition of exogenous AI1. Expression of gfp (encoding green fluorescent protein) is under control of the LasR-AI1 inducible lasI promoter, allowing rapid screening for LasR agonists by measuring the level of GFP expression in their presence.
(§1) P. aeruginosa strain PAO-JP2 (lasI, rhlI) (Rahme et al., Science 268:1899-1902 (1995), which is hereby incorporated by reference in its entirety) harboring plasI-LVAgfp (Pearson et al., Proc. Natl Acad. Sci. USA 91:197-201 (1994), which is hereby incorporated by reference in its entirety) was grown at 37° C. in LB with 300 μg/ml carbenicillin. For agonist assays, an overnight culture was diluted to an OD600 of 0.1 and transferred to wells of a 96-well plate on which test compounds had previously been added and dried. The final concentration of each analog tested was roughly 400 μM, although this is an overestimate due to purity issues. Cells were then incubated for 6 hours at 37° C. with vigorous shaking. GFP expression was detected with a Molecular Imager (BioRad) (488 nm excitation and 695 nm bandpass filter) and quantified with ImageQuant software. The OD600 of cultures was determined to normalize GFP expression to cell density.
(§2) Reporter strains were grown overnight in LB plus 300 μg/ml carbenicillin at 37° C. and diluted to an OD600 of 0.1. Following an incubation of 1 hour, 200 μl of cell culture was added to individual wells of a 96 well plate containing appropriate amount of test compound(s). Plates were incubated for 6 hours and then scanned for fluorescence emission with a Molecular Imager (488 nm excitation and 695 nm bandpass filter). Fluorescence was quantified with ImageQuant software.

RhlR [2] = experiment: rhlI-gfp reporter antagonist assay, PAO-JP2 (prhlI-LVAgfp); type: cell-based, P. aeruginosa; details: competing against 1 μM AI1 and 10 μM AI2
Method: Each compound in the library was tested for antagonist activity using the same reporter strain, PAO-JP2 (plasI-LVAgfp) (de Kievit et al., Appl. Environ. Microbiol. 67:865-1873 (2001), which is hereby incorporated by reference in its entirety) to find compounds that could compete against AI1 and reduce GFP expression. The methods were the same as described in Example 2 (GFP Reporter Assay), except that 1 μM AI1 was added to each well in combination with the library compound. The fluorescence/OD600 of each compound competing against AI1 was reported relative to the fluorescence/OD600 of the positive control of AI1 alone, which was set to 1. When strain PAO-JP2 (prhlI-LVAgfp) was used, the positive control was 1 μM AI1 and 10 μM AI2.
3- oxo-C12-D10 was synthesized in solution phase, where the natural side chain was coupled with D10 and purified by chromatography. To determine if the same structural motif can be applied to inhibition of the RhlR-AI2 interaction, C4-D10 was also synthesized. Assays were performed with both the lasI-gfp reporter PAO-JP2 (plasI-LVAgfp) and an RhlR-AI2 controlled rhlI-gfp reporter, PAO-JP2 (prhlI-LVAgfp) (FIGS. 10A-C) (de Kievit et al., Appl. Environ. Microbiol. 67:865-1873 (2001), which is hereby incorporated by reference in its entirety).
as §2
Next the ability of 2 and 3 to inhibit the rhlI-gfp reporter strain PAO-JP2 (prhlI-LVAgfp) was tested, since this expression is also AI1-dependent.

lac promoter = experiment: GFP expression from lac promoter, PAO-JP2 (pTdK-GFP) (specificity control); type: cell-based, P. aeruginosa; details: lasI promoter replaced with a lac promoter
LasR [3] = biological target: T1, LasR; experiment: lasB-lacZ reporter assay, E. coli MG4 (pKDT37); type: cell-based, P. aeruginosa
Method: E. coli strain MG4 (pKDT37) was grown overnight in Supplemented A media with 100 μg/mL ampicillin at 30° C. and diluted 1:100 in the same media. 1 mL of this culture was added to a test tube containing AI1 or 3-oxo-C12-D12 that had been previously aliquoted and dried. Following a 6 hour incubation at 30° C., β-galactosidase activity was determined using standard methods (Platt et al., Assays of the lac operon Enzymes In: Experiments in Molecular Genetics, Cold Spring Harbor Laboratory Press, Cold Spring Harbor, N.Y., pp. 352-355 (1972), which is hereby incorporated by reference in its entirety).
One of the new agonist structures identified from the library, D12, is 2-aminocyclohexanol (FIG. 5B). […] 3-oxo-C12-D12, containing the natural side chain, was synthesized in solution phase, and tested with both the lasI-gfp reporter as well as a lasB-lacZ reporter in Escherichia coli. E. coli strain MG4 harboring plasmid pKDT37 expresses lasR and contains a lacZ reporter gene controlled by a LasR-AI1 inducible lasB promoter (Passador et al., J. Bacteriol. 178:5995-6000 (1996), which is hereby incorporated by reference in its entirety). […] It also provides strong evidence that the agonist activity in P. aeruginosa is LasR dependent.

RhlR [4] = biological target: T2, RhlR (Pseudomonas aeruginosa, UniProt P54292); type: cell-based, P. aeruginosa; details: for AI2 agonist activity (induction of rhlI-gfp reporter): in the presence of 1 μM AI1, 10, 100, 400 μM analog
T2 construct: an RhlR-AI2 controlled rhlI-gfp reporter, PAO-JP2 (prhlI-LVAgfp); endogenous in cells; host or cells: P. aeruginosa PAO-JP2 (prhlI-LVAgfp)
Method: Thus, it was hypothesized that a 5- or 6-membered ring with a keto or hydroxyl group (or other hydrogen bond acceptor) adjacent to the amine is sufficient for both binding and activation of LasR. To test this hypothesis, the series of molecules shown in FIG. 13 (compounds 14) was synthesized.
as §2
The C4 compounds (A12 and 5-8) were analyzed for agonist activity using PAO-JP2 (prhlI-LVAgfp) (FIGS. 14C and D). Induction of GFP expression in this reporter requires addition of both AI1 and AI2. The AI2 control and agonist assays, therefore, were performed in the presence of 1 μM AI1 and increasing concentrations of AI2 or analog (FIGS. 14C and D).

LasR [5] = biological target: T1, LasR; experiment: lasI-gfp reporter antagonist (competition against AI1) assay, PAO-JP2 (plasI-LVAgfp); type: cell-based, P. aeruginosa; details: for reduction of GFP expression (lasI-gfp): 1 μM AI1
Method: as §1
The methods were the same as described in Example 2 (GFP Reporter Assay), except that 1 μM AI1 was added to each well in combination with the library compound. The fluorescence/OD600 of each compound competing against AI1 was reported relative to the fluorescence/OD600 of the positive control of AI1 alone, which was set to 1. When strain PAO-JP2 (prhlI-LVAgfp) was used, the positive control was 1 μM AI1 and 10 μM AI2. Eight compounds that inhibited reporter gene expression by greater than 50% were identified (see, e.g., FIG. 6).
as §2

Elastase B [6] = experiment: elastase (Elastin Congo Red) assay, strain PAO-JP2; type: cell-based, P. aeruginosa PAO-JP2; details: PAO-JP2, 10-100 μM compound, competing against 5 μM AI1 and 10 μM AI2
Method: (§3) Pyocyanin, elastase, and biofilm were assayed as previously described (Smith et al., Chem. Biol. 10:81-89 (2003), which is hereby incorporated by reference in its entirety). Elastase activity produced by P. aeruginosa in the presence of AIs and competing 3-oxo-C12-D10 was determined by measuring breakdown of the substrate Elastin Congo Red.
(§4) For the elastase B assay, cells (PAO-JP2) were grown overnight in PTSB media (5% Peptone, 0.1% Tryptic Soy Broth) at 37° C., washed and diluted to an OD600 of 0.05, grown to mid-log phase, washed again, and re-suspended to an OD600 of 0.05. The culture was then added to test tubes containing test compound(s) and grown for 6 hours. Elastase B activity was quantified by incubation of 100 μl of filtered culture supernatant with 5 mg Elastin Congo Red substrate and 1 ml of 10 mM Tris pH 7.2, 1 mM CaCl2 for 6 hours at 37° C. with agitation. Elastase B activity is represented by the OD495 of the enzyme assay following reaction quenching with EDTA and centrifugation to remove unreacted substrate, divided by the OD600 of the cell culture. The same assay was run with strain PAO-1, however no exogenous autoinducers were added.

Elastase B [7] = experiment: elastase (Elastin Congo Red) assay, wild type strain PAO1; type: cell-based, P. aeruginosa PAO1; details: wild type PAO1, no exogenous autoinducers
Method: as §3, §4

pyocyanin [8] = experiment: pyocyanin assay, strain PAO-JP2; type: cell-based, P. aeruginosa PAO-JP2; details: PAO-JP2, 25 μM each of AI1 and AI2, 18 hours
Method: (§5) For the pyocyanin assay, cells were grown overnight in LB then washed in fresh media and diluted to an OD600 of 0.05. This culture was grown for 3-4 hours to mid-log phase (OD600 of 0.3-0.5), then diluted to an OD600 of 0.05, and aliquoted to test tubes containing an appropriate amount of test compound(s). Following 18 hours of growth, pyocyanin was extracted from filtered culture supernatants and quantified using standard methods (Essar et al., J. Bacteriol. 172:884-900 (1990), which is hereby incorporated by reference in its entirety).

pyocyanin [9] = experiment: pyocyanin assay, wild type strain PAO1; type: cell-based, P. aeruginosa PAO1; details: wild type PAO1, no AIs added
Method: as §5

[10] = system: PAO-JP2 (pTdK-GFP) biofilm; experiment: static biofilm assay, PAO-JP2 (pTdK-GFP); type: cell-based, P. aeruginosa; details: PAO-JP2 (pTdK-GFP) with exogenous AIs, 24-hour static assay
Method: (§6) Compound 3 was tested for its effect on biofilm development in a 24-hour assay that looks at the early stages of biofilm formation. […] Cultures were grown at 37° C. with shaking for 30 minutes, and then allowed to sit at 37° C. for an additional 23.5 hours. Coverslips were then rinsed and placed on slides for visualization using an MRC1024 Laser Scanning Microscope (BioRad) with a Nikon Fluor-60X oil emersion objective lens (NA=1.4), 488 nm Argon Laser and OG515 filter.

PAO1 (pTdK-GFP) biofilm = experiment: static biofilm assay, PAO1 (pTdK-GFP); type: cell-based, P. aeruginosa
Method: as §6
The same assay was run with strain PAO-1 (pTdK-GFP), and no exogenous autoinducers were added. […] The above results provide additional evidence that compound 3 interferes with QS signaling and reduces the production of important virulence factors.

T2 sequence (P54292 whole entry): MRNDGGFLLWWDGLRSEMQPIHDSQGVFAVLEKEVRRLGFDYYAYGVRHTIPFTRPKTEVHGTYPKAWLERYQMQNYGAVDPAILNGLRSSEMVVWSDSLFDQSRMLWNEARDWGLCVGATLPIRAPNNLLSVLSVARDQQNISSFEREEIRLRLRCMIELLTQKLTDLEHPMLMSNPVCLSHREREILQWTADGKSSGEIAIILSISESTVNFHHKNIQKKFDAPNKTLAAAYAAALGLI
T1 sequence (P25084 whole entry): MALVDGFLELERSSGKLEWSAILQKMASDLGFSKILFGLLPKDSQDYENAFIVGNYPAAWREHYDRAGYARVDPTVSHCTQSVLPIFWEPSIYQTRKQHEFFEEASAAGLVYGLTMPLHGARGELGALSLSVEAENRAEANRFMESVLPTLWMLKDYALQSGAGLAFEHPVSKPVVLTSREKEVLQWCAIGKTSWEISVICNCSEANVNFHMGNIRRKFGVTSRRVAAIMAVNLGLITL

In the case of `CCCCCCCCCC(=O)CC(=O)N[C@@H]1CCC[C@H]1O` (relative stereo) [Compound 2, N-(trans-2-hydroxycyclopentyl)-3-oxododecanamide], the “agonist activity (induction of lasI-gfp reporter)” value (LasR [1]) is reported as “nearly unable to induce the reporter”, the “antagonist activity on rhlI-gfp reporter” value (RhlR [2]) is reported as “no antagonist activity” and the “inhibition of GFP expression from lac promoter” value (lac promoter) is reported as “inability to inhibit GFP expression”.

In the case of `CCCCCCCCCC(=O)CC(=O)N[C@@H]1CCCC[C@H]1O` (relative stereo) [Compound 4, N-(trans-2-hydroxycyclohexyl)-3-oxododecanamide], the “agonist activity (induction of lasI-gfp reporter)” value (LasR [1]) is reported as “strong agonist activity; also recorded: strongest agonist”, the “agonist activity (induction of lasI-gfp reporter)” value (LasR [1]; listed as 3-oxo-C12-D12) is reported as “activated” and the “GFP induction, fold less than AI1” value (LasR [1]; at 1 μM) is reported as 2 fold. The “GFP induction compared with AI1” value (LasR [1]; at higher concentrations (100, 400 μM)) was “comparable to AI1”, the “lasB-lacZ reporter activation (beta-galactosidase activity)” value (LasR [3]; E. coli MG4 (pKDT37), 6 hour incubation) was “activated” and the “LasR inducing activity compared with natural AI1” value (LasR [3]; lasI-gfp and lasB-lacZ reporters (FIG. 9)) was “comparable to the natural AI1”.

`CCCC(=O)N[C@@H]1CCC[C@H]1O` (relative stereo) [Compound 6, N-(trans-2-hydroxy)cyclopentylbutanamide] was tested, and the “antagonist activity on rhlI-gfp reporter” value (RhlR [2]) was “no inhibition”, the “AI2 agonist activity (induction of rhlI-gfp reporter)” value (shortened to “AI2 agonist activity”) (RhlR [4]) was “no agonist activity” and the “AI2 agonist activity” value (RhlR [4]; listed as C4-(2-aminocylcopentanol)) was “could not activate RhlR”.

With `CCCC(=O)N[C@@H]1CCCC[C@H]1O` (relative stereo) [Compound 8, N-(trans-2-hydroxy)cyclohexylbutanamide] the “GFP expression (rhlI-gfp)” value (RhlR [4]; 400 μM analog, 1 μM AI1) was “moderate GFP expression” and the “AI2 agonist activity” value (RhlR [4]) was “very little AI2 agonist activity”.

With `CCCCCCCCCC(=O)CC(=O)Nc1ccccc1O` [3-oxo-C12-D10] the “las circuit inhibition, comparison of potency” value (LasR [5]) was “more potent than 3”, the “reduction of GFP expression (lasI-gfp)” value (LasR [5]; 10 μM compound) was “approximately 60%” and the “reduction of GFP expression (lasI-gfp)” value (LasR [5]; 100 μM compound) was ~90%. The “inhibition of GFP expression (rhlI-gfp)” value (RhlR [2]; 50 μM compound) was “more than 80%”, the “reduction of elastase activity” value (Elastase B [6]) was “approximately 50%” and the “effect on elastase activity” value (Elastase B [7]) was “reduced elastase activity”. The “effect on pyocyanin production” value (pyocyanin [8]) was “not able to interfere with pyocyanin production”, the “effect on pyocyanin production” value (pyocyanin [9]) was “not able to interfere with pyocyanin production” and the “effect on biofilm formation” value [10] was “slightly enhanced rather than inhibited”. For the same compound, the “effect on biofilm morphology” value (PAO1 (pTdK-GFP) biofilm; wild type PAO1) was “fluffy” and the “effect on biofilm formation” value (PAO1 (pTdK-GFP) biofilm; wild type PAO1, no exogenous autoinducers) was “did not interfere with biofilm formation”.

With `CCCCCCCCCC(=O)CC(=O)NC1CCCC1=O` (stereo not shown) [Compound 1, N-(2-oxocyclopentyl)-3-oxododecanamide] the “agonist activity (induction of lasI-gfp reporter)” value (LasR [1]) was “able to induce the reporter only at a very high concentration; also recorded: weak agonist”.

With `CCCC(=O)NC1CCCC1=O` (stereo not shown) [Compound 5, N-2-oxocyclopentylbutanamide] the “AI2 agonist activity” value (RhlR [4]) was “strong agonist activity”.

For `CCCC(=O)NC1CCCCC1=O` (stereo not shown) [Compound 7, N-2-oxocyclohexylbutanamide], the “AI2 agonist activity” value (RhlR [4]) was “strong agonist activity”.
